Our source for the TGI values is PubChem BioAssay (NCI).

SMILES strings stand for the structures.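 Tested at 5 concentrations; 48 h exposure; 96-well plates; endpoints linearly interpolated, else capped at highest concentration. TGI denotes the concentration required for complete inhibition of growth.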 Some results are limits rather than exact numbers.

Among the test systems are MCF7 breast; MDA-N; SW-620 colon; 786-0 renal; CCRF-CEM leukemia; SF-539 CNS; BT-549 breast; MDA-MB-435; M14 melanoma; TK-10 renal; ACHN renal; OVCAR-3 ovarian; OVCAR-4 ovarian; MALME-3M melanoma; SK-MEL-2 melanoma; UO-31 renal; HOP-92 NSCLC; NCI-H460 lung; RXF 393 renal; T-47D breast.
What all share (test): growth of human tumour cells (NCI), 48 h

`O=C(c1ccc(-c2ccccc2)cc1)N(Cc1cccnc1)C(=S)N(Cc1cccnc1)C(=O)c1ccc(-c2ccccc2)cc1`: the TGI with MCF7 breast, with MDA-N, with SW-620 colon, in the assay with 786-0 renal, in the assay with CCRF-CEM leukemia and in the assay with SF-539 CNS was above 100 µM throughout. Moreover, the TGI in the assay on BT-549 breast, in the assay on MDA-MB-435, with M14 melanoma, with TK-10 renal, in the assay on ACHN renal and in the assay with OVCAR-3 ovarian was above 100 µM in each case. Further, the TGI with OVCAR-4 ovarian, in the assay on MALME-3M melanoma, in the assay on SK-MEL-2 melanoma, with UO-31 renal, in the assay with HOP-92 NSCLC and with NCI-H460 lung was above 100 µM throughout.

With `COc1cc2c(NCCN(C)C)nc3c4cc5c(cc4ccc3c2cc1OC)OCO5`, the TGI with MCF7 breast is 6.07 µM; in the assay on MDA-N, 6.99 µM; in the assay on SW-620 colon it was 7.22 µM; with 786-0 renal, 6.15 µM; in the assay on CCRF-CEM leukemia, 6.44 µM; with SF-539 CNS it was 7.73 µM. Further, the TGI with MDA-MB-435 is 6.79 µM; with M14 melanoma, 7.4 µM; with TK-10 renal, 5.88 µM; in the assay on ACHN renal it was 4.01 µM; in the assay on OVCAR-4 ovarian, 7.91 µM; in the assay with MALME-3M melanoma, 7.78 µM. The TGI was found to be 9.94 µM in the assay on SK-MEL-2 melanoma; 7.3 µM with RXF 393 renal; 7.05 µM in the assay with UO-31 renal; 8.77 µM in the assay on HOP-92 NSCLC; 11.5 µM with T-47D breast; 5.38 µM with NCI-H460 lung.

Regarding `OC1C2CCC3C2CC(C(O)(c2ccccc2)c2ccccc2)C13` (configuration not stated), the TGI is above 100 µM with MCF7 breast; above 100 µM in the assay with MDA-N; above 100 µM with SW-620 colon; above 100 µM with 786-0 renal; 95.1 µM with CCRF-CEM leukemia; above 100 µM in the assay with SF-539 CNS. Besides, the TGI with MDA-MB-435 was above 100 µM; in the assay on M14 melanoma it was above 100 µM; in the assay on TK-10 renal, above 100 µM; with ACHN renal, above 100 µM; in the assay on OVCAR-3 ovarian, 87.3 µM; with OVCAR-4 ovarian, above 100 µM. Moreover, the TGI is 71.3 µM in the assay on MALME-3M melanoma; 48.2 µM in the assay with SK-MEL-2 melanoma; 96.6 µM in the assay with RXF 393 renal; above 100 µM in the assay on UO-31 renal; above 100 µM in the assay with HOP-92 NSCLC; above 100 µM in the assay on T-47D breast. Moreover, the TGI with NCI-H460 lung was above 100 µM.

Take `COc1c(N2CCCCC2)c2c(=O)c3ccccc3oc2c2cc(C)oc12`: the TGI with MCF7 breast is above 100 µM; in the assay on MDA-N, 63.9 µM; in the assay with SW-620 colon it was above 100 µM; in the assay on 786-0 renal, above 100 µM; in the assay with CCRF-CEM leukemia, above 100 µM; in the assay with SF-539 CNS, above 100 µM. The TGI is 97.9 µM in the assay with BT-549 breast; above 100 µM with MDA-MB-435; 53.6 µM in the assay on M14 melanoma; above 100 µM in the assay on TK-10 renal; 53.7 µM in the assay with ACHN renal; above 100 µM with OVCAR-3 ovarian. For the same compound, the TGI with OVCAR-4 ovarian was above 100 µM; with MALME-3M melanoma, 81 µM; with SK-MEL-2 melanoma it was 61.6 µM; in the assay on RXF 393 renal, 70 µM; in the assay with UO-31 renal, 54 µM; with HOP-92 NSCLC it was 55.6 µM. This compound showed a TGI in the assay with NCI-H460 lung above 100 µM.

With `Cc1ccc(N/N=C/C2=CC(C)(C)C(C#N)(C#N)C(O)=C2C#N)cc1`, the TGI in the assay with MCF7 breast, in the assay with MDA-N, in the assay on SW-620 colon, in the assay with 786-0 renal, in the assay with CCRF-CEM leukemia and in the assay with SF-539 CNS was above 100 µM throughout. Besides, the TGI in the assay with MDA-MB-435, in the assay on M14 melanoma, with TK-10 renal, with ACHN renal, with OVCAR-3 ovarian and with OVCAR-4 ovarian was above 100 µM in each case. Moreover, the TGI was above 100 µM in the assay with MALME-3M melanoma; 85.2 µM with RXF 393 renal; above 100 µM in the assay with UO-31 renal; 42.2 µM in the assay with HOP-92 NSCLC; above 100 µM in the assay on T-47D breast; above 100 µM with NCI-H460 lung.

Regarding `CC(=O)N(CN1C(=O)CCC1C(=O)O)c1ccc(C)cc1` (configuration not stated), the TGI in the assay with MCF7 breast, in the assay with MDA-N, with SW-620 colon, in the assay with 786-0 renal, in the assay on CCRF-CEM leukemia and with SF-539 CNS was above 100 µM each time. The TGI with MDA-MB-435, in the assay on M14 melanoma, in the assay with TK-10 renal, in the assay with ACHN renal, with OVCAR-3 ovarian and in the assay on OVCAR-4 ovarian was above 100 µM each time. The TGI in the assay on MALME-3M melanoma, with SK-MEL-2 melanoma, in the assay on UO-31 renal, in the assay with HOP-92 NSCLC, in the assay on T-47D breast and with NCI-H460 lung was above 100 µM each time.

In the case of `COc1c(C(=O)/C(=N/Nc2cccc(Cl)c2)C(C)=O)c(O)c(OC)c2occc12`, the TGI with MCF7 breast, with MDA-N, with SW-620 colon, in the assay on 786-0 renal, in the assay with CCRF-CEM leukemia and in the assay with SF-539 CNS was above 100 µM throughout. The TGI in the assay with MDA-MB-435, in the assay with M14 melanoma, in the assay on TK-10 renal, in the assay on ACHN renal, in the assay on OVCAR-3 ovarian and in the assay with MALME-3M melanoma was above 100 µM throughout. Besides, the TGI in the assay on SK-MEL-2 melanoma is above 100 µM; in the assay with RXF 393 renal, above 100 µM; in the assay with UO-31 renal it was above 100 µM; in the assay with HOP-92 NSCLC, above 100 µM; in the assay on T-47D breast, 88.9 µM; in the assay on NCI-H460 lung, above 100 µM.

For `O=C1CCN=C(NC(=O)C(F)(F)F)N1CCc1c[nH]c2ccccc12`, the TGI with MCF7 breast, in the assay with MDA-N, in the assay on SW-620 colon, with 786-0 renal, with CCRF-CEM leukemia and in the assay on SF-539 CNS was above 100 µM each time. Moreover, the TGI in the assay with MDA-MB-435, in the assay on M14 melanoma, in the assay on TK-10 renal, in the assay with ACHN renal, with OVCAR-3 ovarian and in the assay with OVCAR-4 ovarian was above 100 µM in each case. Also, the TGI with MALME-3M melanoma, with SK-MEL-2 melanoma, with RXF 393 renal, with UO-31 renal, in the assay on HOP-92 NSCLC and in the assay with T-47D breast was above 100 µM in each case. Moreover, the TGI in the assay with NCI-H460 lung was above 100 µM.
